Where two headings read alike, the source gives them in different places.
Legend:
[1] = tested on: advanced pancreatic cancer; conditions: Phase II, combination with Gemcitabine; cited from earlier work
breast cancer = conditions: xenograft models; cited from earlier work
[2] = tested on: previously treated metastatic renal cell carcinoma (mRCC); conditions: Phase III, 2010; cited from earlier work
[3] = tested on: advanced pancreatic cancer; conditions: Phase III, combination with Gemcitabine; cited from earlier work
[4] = tested on: phosphorylated RPS6 (ribosomal protein S6); conditions: TSC1-deficient cells; cited from earlier work
[5] = tested on: HCT116 tumors vs 786O tumors; assay: response of hypoxic vs non-hypoxic tumors; format: in vivo, nude mice; conditions: doses as in the 3rd table
mTORC2 = mTORC2 (Homo sapiens, UniProt P42345); conditions: immune-kinase assays; cited from earlier work
mTORC1 = mTORC1 (Homo sapiens, UniProt P42345); conditions: immune-kinase assays; cited from earlier work
pancreatic cancer = conditions: PTK787 and gemcitabine, cited from earlier work
[6] = tested on: mCRC pretreated with 5-FU/irinotecan; conditions: cited from earlier work
[7] = tested on: HCT116 human colon carcinoma xenograft; assay: HCT116 xenograft model (hypoxic tumor); format: in vivo, nude mice
Procedure: (§1) Human tumor cell lines HCT116 (ATCC #CRL-247; Schroy PC, et al. Cancer 76:201-209, 1995) and 786-O (ATCC #CRL-1932; Williams RD, et al. In Vitro 12:623-627, 1976), were obtained from the American Type Culture Collection (Manassus, Va., USA) were cultured using routine methods until a sufficient number of cells were obtained for implantation. Studies were conducted on animals between 7 and 12 weeks of age at implantation. To implant HCT116 tumor cells into nude mice, the cells were trypsinized, washed in PBS and resuspended at a concentration of 75×10^6 cells/ml in McCoy's modified medium with 50% of BD Matrigel® Basement Membrane Matrix (BD Biosciences®, Bedford, Mass., USA). To implant 786-O tumor cells into nude mice, the cells were trypsinized as above, washed in PBS and resuspended at a concentration of 75×10^6 cells/ml in RPMI 1640 medium with 50% of BD Matrigel® Basement Membrane Matrix. Using a 27 gauge needle and 1 cc syringe, 0.1 ml of the cell suspension was injected into the corpus adiposum of nude mice. The corpus adiposum is a fat body located in the ventral abdominal vicera in the right quadrant of the abdomen at the juncture of the os coxae (pelvic bone) and the os femoris (femur). The location permits palpation and measurement of the tumors using external calipers. Tumor volumes (V) were calculated by caliper measurement of the width (W), length (L) and thickness (T) of tumors using the following formula: V=0.5236×(L×W×T). Animals were randomized into treatment groups so that the average tumor volumes of each group were similar at the start of dosing.
(§2) A tumor model in which the tumors have relatively high and low levels of LDH5, indicating high and low levels of hypoxia, using human tumor cell lines HCT116 and 786-O was established as set forth in the previous example.
(§3) As above, HCT116 and 786-O cells were cultured and implanted into nude mice using the methods in the previous example. Tumor growth was measured using calipers. Prior to treatment with the various agents, tumors were permitted to develop in vivo until they reached approximately 150 mm^3 in volume, which typically required 2-3 weeks following implantation. Animals were randomized into treatment groups so that the average tumor volumes of each group were similar at the start of dosing.
(§4) Tumor volume was monitored throughout the course of the study, until up to about 40 days from the date of tumor implantation. The exact number of days of the study depended on a number of factors including, for example, the number of days from implantation for the tumors to reach the desired volume.

[8] = tested on: metastatic colorectal cancer (mCRC); conditions: cited from earlier work
[9] = tested on: 786-O human renal carcinoma xenograft; assay: 786-O xenograft model (non-hypoxic tumor); format: in vivo, nude mice
Procedure: as §1, §2, §3, §4

[10] = tested on: metastatic colorectal cancer (mCRC); conditions: P <0.001, cited from earlier work
JAK2V617F = JAK2V617F (Homo sapiens, UniProt O60674, V617F); conditions: cited from earlier work
[11] = tested on: locally advanced or metastatic NSCLC after failure of at least one chemotherapy regimen; conditions: erlotinib 150 mg orally once daily; cited from earlier work
[12] = tested on: locally advanced or metastatic NSCLC; conditions: maintenance, cited from earlier work
[13] = tested on: locally advanced, unresectable or metastatic pancreatic cancer; conditions: 100 mg cohort, erlotinib arm = plus gemcitabine, comparator gemcitabine alone, cited from earlier work; for progression free survival: p=0.006; for survival: p=0.028
VEGFR-2 [14] = target: T1, VEGFR-2 (Mus musculus, UniProt P35918); conditions: in vivo, cited from earlier work
T1 construct: from tissue; host or cells: mouse lungs (in vivo)

PDGFR-β = PDGFR-β (Homo sapiens, UniProt P09619); conditions: in vitro; cited from earlier work
human tumor xenografts = conditions: mice; cited from earlier work
angiogenesis = conditions: mouse model; cited from earlier work
[15] = tested on: advanced RCC and poor prognosis; conditions: cited from earlier work; for progression-free survival / median overall survival: single agents; for progression-free survival: P=0.0001; for median overall survival: P=0.0078
RCC and poor prognosis = conditions: cited from earlier work
[16] = tested on: renal cell carcinoma cell lines; conditions: cited from earlier work
VEGFR-2 [17] = target: VEGFR-2 (Homo sapiens, UniProt P35968); conditions: in vitro; cited from earlier work
renal cancer = conditions: bevacizumab arm = with interferon-alpha; comparator interferon-alpha alone; cited from earlier work
[18] = 140 subjects with elevated LDH, log-rank p<0.005
[19] = 264 subjects with normal LDH, log-rank p=0.514

T1 sequence (P35918 20-1345): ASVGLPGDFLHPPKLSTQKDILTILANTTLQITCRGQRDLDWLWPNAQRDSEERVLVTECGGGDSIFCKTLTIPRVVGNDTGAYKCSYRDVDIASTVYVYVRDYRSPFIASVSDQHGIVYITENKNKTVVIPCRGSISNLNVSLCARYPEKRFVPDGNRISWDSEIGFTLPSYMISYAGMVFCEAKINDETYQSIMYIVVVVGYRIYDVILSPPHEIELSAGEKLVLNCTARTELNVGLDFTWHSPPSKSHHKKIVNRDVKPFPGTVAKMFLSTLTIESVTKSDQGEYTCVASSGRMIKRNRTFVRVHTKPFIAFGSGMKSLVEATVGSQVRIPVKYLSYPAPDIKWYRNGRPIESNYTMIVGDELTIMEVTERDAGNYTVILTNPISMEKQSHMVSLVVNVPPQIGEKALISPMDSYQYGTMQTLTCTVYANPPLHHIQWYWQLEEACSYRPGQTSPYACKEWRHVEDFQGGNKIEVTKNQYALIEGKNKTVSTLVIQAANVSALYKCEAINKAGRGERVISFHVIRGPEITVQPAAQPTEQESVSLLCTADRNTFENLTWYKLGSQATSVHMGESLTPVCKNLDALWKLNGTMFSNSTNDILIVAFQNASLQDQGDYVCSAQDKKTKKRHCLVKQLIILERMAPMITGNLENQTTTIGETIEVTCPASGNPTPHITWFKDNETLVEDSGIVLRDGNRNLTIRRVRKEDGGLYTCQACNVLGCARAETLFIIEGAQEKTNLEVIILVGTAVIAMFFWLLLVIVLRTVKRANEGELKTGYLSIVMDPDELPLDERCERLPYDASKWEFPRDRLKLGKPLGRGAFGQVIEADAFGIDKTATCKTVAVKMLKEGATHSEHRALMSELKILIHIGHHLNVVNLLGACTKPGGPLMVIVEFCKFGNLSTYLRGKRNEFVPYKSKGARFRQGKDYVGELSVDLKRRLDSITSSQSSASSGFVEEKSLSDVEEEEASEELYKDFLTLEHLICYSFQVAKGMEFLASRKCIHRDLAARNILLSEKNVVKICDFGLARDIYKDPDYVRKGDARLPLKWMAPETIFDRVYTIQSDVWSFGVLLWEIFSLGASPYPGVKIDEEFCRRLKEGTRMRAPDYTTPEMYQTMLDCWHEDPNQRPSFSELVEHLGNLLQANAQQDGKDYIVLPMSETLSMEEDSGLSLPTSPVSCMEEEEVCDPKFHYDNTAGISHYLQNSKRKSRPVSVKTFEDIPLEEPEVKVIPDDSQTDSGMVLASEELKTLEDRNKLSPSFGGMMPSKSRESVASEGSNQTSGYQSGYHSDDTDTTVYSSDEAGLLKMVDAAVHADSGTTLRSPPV
Sequence of JAK2V617F (O60674 whole entry V617F): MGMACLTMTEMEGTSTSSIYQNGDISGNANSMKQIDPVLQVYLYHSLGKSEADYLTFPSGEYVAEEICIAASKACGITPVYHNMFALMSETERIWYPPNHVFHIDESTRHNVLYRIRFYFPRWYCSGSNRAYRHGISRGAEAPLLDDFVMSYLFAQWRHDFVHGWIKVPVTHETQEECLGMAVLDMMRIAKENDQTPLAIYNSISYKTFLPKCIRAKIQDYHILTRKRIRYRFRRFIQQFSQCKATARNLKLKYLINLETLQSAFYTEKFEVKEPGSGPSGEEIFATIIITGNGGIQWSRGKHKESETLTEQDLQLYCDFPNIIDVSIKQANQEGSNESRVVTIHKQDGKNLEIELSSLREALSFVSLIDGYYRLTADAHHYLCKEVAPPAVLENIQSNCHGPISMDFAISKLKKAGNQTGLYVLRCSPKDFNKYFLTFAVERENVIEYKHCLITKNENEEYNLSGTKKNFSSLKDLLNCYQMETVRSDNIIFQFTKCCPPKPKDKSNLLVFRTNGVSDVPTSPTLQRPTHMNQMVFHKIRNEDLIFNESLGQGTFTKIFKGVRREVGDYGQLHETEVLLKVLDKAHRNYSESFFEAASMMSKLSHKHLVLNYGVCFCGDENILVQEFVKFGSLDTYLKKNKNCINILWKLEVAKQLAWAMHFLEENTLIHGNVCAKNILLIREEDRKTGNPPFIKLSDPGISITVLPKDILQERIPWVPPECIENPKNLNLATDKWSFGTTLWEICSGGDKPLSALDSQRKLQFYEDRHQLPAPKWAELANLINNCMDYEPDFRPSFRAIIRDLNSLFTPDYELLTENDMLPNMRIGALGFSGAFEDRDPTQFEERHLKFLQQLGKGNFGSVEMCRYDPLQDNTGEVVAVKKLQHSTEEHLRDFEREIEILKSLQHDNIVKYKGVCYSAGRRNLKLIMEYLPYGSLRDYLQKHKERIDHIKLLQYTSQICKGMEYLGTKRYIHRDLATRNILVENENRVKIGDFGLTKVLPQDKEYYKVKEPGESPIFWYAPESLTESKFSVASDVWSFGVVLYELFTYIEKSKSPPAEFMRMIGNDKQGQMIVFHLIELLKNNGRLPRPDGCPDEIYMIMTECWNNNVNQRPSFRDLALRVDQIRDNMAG
Sequence of PDGFR-β (P09619 33-1106, species assumed): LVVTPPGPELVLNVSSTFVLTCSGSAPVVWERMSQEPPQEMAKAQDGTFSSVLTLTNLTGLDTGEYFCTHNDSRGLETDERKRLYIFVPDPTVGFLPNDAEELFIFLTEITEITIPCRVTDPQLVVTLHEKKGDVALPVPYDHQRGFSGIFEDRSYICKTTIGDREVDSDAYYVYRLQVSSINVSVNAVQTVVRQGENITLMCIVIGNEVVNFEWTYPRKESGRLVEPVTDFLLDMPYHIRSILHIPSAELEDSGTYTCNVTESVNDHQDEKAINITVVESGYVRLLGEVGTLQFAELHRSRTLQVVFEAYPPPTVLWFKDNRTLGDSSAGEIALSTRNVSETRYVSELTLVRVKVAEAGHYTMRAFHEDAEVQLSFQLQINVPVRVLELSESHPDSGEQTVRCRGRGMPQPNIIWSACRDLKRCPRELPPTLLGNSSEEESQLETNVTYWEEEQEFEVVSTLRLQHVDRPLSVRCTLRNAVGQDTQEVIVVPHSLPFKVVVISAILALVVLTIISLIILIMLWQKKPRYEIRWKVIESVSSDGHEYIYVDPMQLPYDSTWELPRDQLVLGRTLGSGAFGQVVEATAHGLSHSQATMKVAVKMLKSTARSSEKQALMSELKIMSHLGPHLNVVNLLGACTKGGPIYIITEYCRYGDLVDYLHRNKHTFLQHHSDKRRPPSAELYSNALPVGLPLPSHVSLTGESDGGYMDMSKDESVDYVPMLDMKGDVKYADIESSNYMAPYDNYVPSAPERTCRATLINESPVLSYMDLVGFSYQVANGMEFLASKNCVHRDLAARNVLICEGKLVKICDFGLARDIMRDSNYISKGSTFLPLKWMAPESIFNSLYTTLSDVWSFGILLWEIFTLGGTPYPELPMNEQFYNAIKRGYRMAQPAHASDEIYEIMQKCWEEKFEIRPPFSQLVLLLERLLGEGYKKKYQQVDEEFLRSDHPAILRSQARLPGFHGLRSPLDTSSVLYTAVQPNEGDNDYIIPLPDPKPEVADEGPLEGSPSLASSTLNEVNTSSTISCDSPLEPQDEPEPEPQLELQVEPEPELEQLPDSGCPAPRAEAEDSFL
Sequence of VEGFR-2 (Homo sapiens, UniProt P35968) (P35968 20-1356, species assumed): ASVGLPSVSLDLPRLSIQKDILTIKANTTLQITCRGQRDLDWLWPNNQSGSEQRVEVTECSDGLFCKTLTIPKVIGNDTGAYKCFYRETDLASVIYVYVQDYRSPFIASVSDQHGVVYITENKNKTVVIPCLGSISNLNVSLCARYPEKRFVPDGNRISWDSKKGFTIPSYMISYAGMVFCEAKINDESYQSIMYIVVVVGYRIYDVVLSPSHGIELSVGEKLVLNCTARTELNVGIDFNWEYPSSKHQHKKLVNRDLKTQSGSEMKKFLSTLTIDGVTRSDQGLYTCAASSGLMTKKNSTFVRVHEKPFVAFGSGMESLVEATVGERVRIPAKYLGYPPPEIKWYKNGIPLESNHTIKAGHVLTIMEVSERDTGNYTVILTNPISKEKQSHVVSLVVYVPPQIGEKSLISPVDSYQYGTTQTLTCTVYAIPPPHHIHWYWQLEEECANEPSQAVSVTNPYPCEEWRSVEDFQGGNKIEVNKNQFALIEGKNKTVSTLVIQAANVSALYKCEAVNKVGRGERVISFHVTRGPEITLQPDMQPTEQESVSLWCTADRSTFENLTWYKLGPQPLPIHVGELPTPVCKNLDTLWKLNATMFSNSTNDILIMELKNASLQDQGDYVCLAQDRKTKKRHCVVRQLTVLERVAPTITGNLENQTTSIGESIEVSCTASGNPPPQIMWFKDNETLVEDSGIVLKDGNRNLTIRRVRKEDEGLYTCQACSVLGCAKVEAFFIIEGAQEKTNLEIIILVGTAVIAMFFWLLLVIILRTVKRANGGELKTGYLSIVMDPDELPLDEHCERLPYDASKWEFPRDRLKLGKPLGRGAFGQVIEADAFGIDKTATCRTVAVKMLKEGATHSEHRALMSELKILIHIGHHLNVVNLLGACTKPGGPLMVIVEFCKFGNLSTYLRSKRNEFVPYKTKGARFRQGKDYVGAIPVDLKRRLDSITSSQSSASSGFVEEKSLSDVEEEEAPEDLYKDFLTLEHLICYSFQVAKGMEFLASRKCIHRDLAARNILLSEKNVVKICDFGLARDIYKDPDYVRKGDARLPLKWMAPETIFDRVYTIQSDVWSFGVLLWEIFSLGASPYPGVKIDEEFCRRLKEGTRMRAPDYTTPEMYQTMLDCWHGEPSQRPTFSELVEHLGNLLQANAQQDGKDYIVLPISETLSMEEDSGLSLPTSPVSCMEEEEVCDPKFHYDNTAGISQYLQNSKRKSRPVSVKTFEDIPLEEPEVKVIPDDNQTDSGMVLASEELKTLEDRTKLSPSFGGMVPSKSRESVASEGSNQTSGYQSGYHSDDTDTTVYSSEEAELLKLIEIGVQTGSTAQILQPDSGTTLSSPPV

## CNC(=O)c1ccccc1Sc1ccc2c(/C=C/c3ccccn3)n[nH]c2c1 [Axitinib, N-Methyl-2-[[3-[(E)-2-pyridin-2-ylethenyl]-1H-indazol-6-yl]sulfanyl]benzamide]
[1]
  response: good response
Breast cancer
  growth of breast cancer: significantly inhibit growth
[2]
  progression-free survival compared to sorafenib: significantly extended progression-free survival
[3]
  survival rates over Gemcitabine alone: no evidence of improved survival rates

## Cn1c(=O)n(-c2ccc(C(C)(C)C#N)cc2)c2c3cc(-c4cnc5ccccc5c4)ccc3ncc21 [BEZ235]
[4]
  levels of phosphorylated RPS6: significantly reduce
[5]
  effectiveness at slowing tumor growth in tumors with high levels of hypoxia (HCT116) compared with low levels (786O): not found to work better
mTORC2
  mTORC2 kinase activity: blocks
mTORC1
  mTORC1 kinase activity: blocks

## Clc1ccc(Nc2nnc(Cc3ccncc3)c3ccccc23)cc1 [PTK787, N-(4-chlorophenyl)-4-(pyridin-4-ylmethyl)phthalazin-1-amine]
Pancreatic cancer
  duration of stable disease: 2-6 months
Pancreatic cancer; six of eleven patients
  patients with stable disease as the best response: 55%
[5]
  effectiveness at slowing tumor growth in tumors with high levels of hypoxia (HCT116) compared with low levels (786O): more effective
[6]; CONFIRM 2 - High LDH, N 250
  PFS HR: 0.63
[6]; CONFIRM 2 - Low LDH, N 605, P 0.58
  PFS HR: 0.95
[7]; 50 mg/kg 5×/week p.o., p=0.1209
  tumor growth as compared to control: reduced the growth of the tumor
[8]; CONFIRM 1 - High LDH, N 316, P 0.002
  PFS HR: 0.61
[8]; CONFIRM 1 - Low LDH, N 852, P 0.43
  PFS HR: 0.93
[9]; 50 mg/kg 5×/week p.o., p=0.7805
  tumor burden as compared to control: no difference in tumor burden
[9]; Erlotinib section, FIG. 5B, 1×/week p.o., p=0.8548
  tumor burden as compared to control: no difference in tumor burden
[9]; XL765 section, FIG. 4B, 30 mg/kg 5×/week p.o., p=0.7682
  tumor burden as compared to control: no difference in tumor burden
[10]; All CONFIRM 1 & 2 High LDH Patients, N 566
  PFS HR: 0.62
[10]; All CONFIRM 1 & 2 Patients, N 2023
  PFS HR: 0.82

## COc1cc(Nc2nc3ccccc3nc2NS(=O)(=O)c2ccc(NC(=O)c3ccc(C)c(OC)c3)cc2)cc(OC)c1 [XL765]
[5]
  effectiveness at slowing tumor growth in tumors with high levels of hypoxia (HCT116) compared with low levels (786O): more effective
[7]; 30 mg/kg 5×/week p.o., p=0.009
  tumor growth rate as compared to control: reduced the growth rate of the tumor

## C#Cc1cccc(Nc2ncnc3cc(OCCOC)c(OCCOC)cc23)c1 [erlotinib]
JAK2V617F
  JAK2V617F activity: potent inhibitor
[5]
  effectiveness at slowing tumor growth in tumors with high levels of hypoxia (HCT116) compared with low levels (786O): more effective
[11]
  progression free survival: 9.9 weeks
  rate of one year survival: 31.2%
  response duration, median: 34.3 weeks
  survival: 6.7 months
  tumor response: 8.9%
[12]; erlotinib 150 mg orally once daily
  progression free survival: 2.8 months
[12]; difference not statistically significant
  overall survival: 12 weeks
[7]; 1×/week p.o., doses 40, 25, 10 mg/kg in the 3rd table, p=0.0224
  tumor growth rate as compared to control: reduced the growth rate of the tumor
[13]
  progression free survival: 3.8 months
  survival: 6.4 months

## Nc1ccn([C@@H]2O[C@H](CO)[C@@H](O)C2(F)F)c(=O)n1 [gemcitabine]
[13]
  progression free survival: 3.5 months
  survival: 6.0 months

## Cc1ccc(Nc2nccc(N(C)c3ccc4c(C)n(C)nc4c3)n2)cc1S(N)(=O)=O.Cl [pazopanib]
VEGFR-2 [14]; mouse lungs
  VEGF-induced VEGFR-2 phosphorylation: inhibited
PDGFR-β
  ligand-induced autophosphorylation of PDGFR-β: inhibited
Human tumor xenografts
  growth of some human tumor xenografts: inhibited
angiogenesis
  angiogenesis: inhibited

## CNC(=O)c1cc(Oc2ccc(NC(=O)Nc3ccc(Cl)c(C(F)(F)F)c3)cc2)ccn1 [sorafenib]
[5]
  effectiveness at slowing tumor growth in tumors with high levels of hypoxia (HCT116) compared with low levels (786O): not found to work better

## CCN(CC)CCNC(=O)c1c(C)[nH]c(/C=C2\C(=O)Nc3ccc(F)cc32)c1C [sutent]
[5]
  effectiveness at slowing tumor growth in tumors with high levels of hypoxia (HCT116) compared with low levels (786O): not found to work better

## CO[C@H]1C[C@@H]2CC[C@@H](C)[C@@](O)(O2)C(=O)C(=O)N2CCCC[C@H]2C(=O)O[C@H]([C@H](C)C[C@@H]2CC[C@@H](OC(=O)C(C)(CO)CO)[C@H](OC)C2)CC(=O)[C@H](C)/C=C(\C)[C@@H](O)[C@@H](OC)C(=O)[C@H](C)C[C@H](C)/C=C/C=C/C=C/1C [temsirolimus]
[5]
  effectiveness at slowing tumor growth in tumors with high levels of hypoxia (HCT116) compared with low levels (786O): not found to work better
[15]; combination of temsirolimus and interferon-alpha
  overall survival compared with interferon-alpha alone: did not result in a significant increase in overall survival
[15]; human, in vivo
  increase in median overall survival compared to interferon-alpha: 49%
[15]
  progression-free survival: 5.5 months
  median overall survival: 10.9 months
RCC and poor prognosis; [18]
  survival: 6.9 months
RCC and poor prognosis; [19]
  survival: 11.7 months
[16]
  activity of mTOR: inhibited
  levels of HIF-1 and HIF-2 alpha, and vascular endothelial growth factor: reduced levels

## Cediranib
VEGFR-2 [14]; mouse
  VEGF-induced VEGFR-2 phosphorylation: inhibited
Human tumor xenografts
  growth of some human tumor xenografts: inhibited
angiogenesis
  angiogenesis: inhibited
VEGFR-2 [17]
  ligand-induced autophosphorylation of VEGFR-2: inhibited

## interferon-alpha
[15]
  progression-free survival: 3.1 months
  median overall survival: 7.3 months
RCC and poor prognosis; [18]
  survival: 4.2 months
RCC and poor prognosis; [19]
  survival: 10.4 months
Renal cancer
  patients with decreased tumor size: 12%

## panitumumab: Anti-EGFR
[5]
  effectiveness at slowing tumor growth in tumors with high levels of hypoxia (HCT116) compared with low levels (786O): not found to work better

— patent US20120128665A1, “PRESELECTION OF SUBJECTS FOR THERAPEUTIC TREATMENT BASED ON HYPOXIC STATUS” (SYNTA PHARMACEUTICALS CORP., priority 2010, published 2012)
